Experimental data from patent publication US10287255B2, “Compounds as histone deacetylase 6 inhibitors and pharmaceutical compositions comprising the same” (CHONG KUN DANG PHARMACEUTICAL CORP., priority 2014, dated 2019).

Columns and labels:
[1] = target: T1, human recombinant HDAC6 (Homo sapiens, UniProt Q9UBN7); assay: HDAC6 enzyme activity inhibition assay (in vitro, fluorimetric); format: biochemical; settings: for HDAC6 selectivity (fold): HDAC6 selectivity over HDAC1; for IC50: human recombinant HDAC6, fluorimetric kit, same protocol as HDAC1
T1 construct: purchased Calbiochem 382180
T1 sequence (Q9UBN7 1-1215): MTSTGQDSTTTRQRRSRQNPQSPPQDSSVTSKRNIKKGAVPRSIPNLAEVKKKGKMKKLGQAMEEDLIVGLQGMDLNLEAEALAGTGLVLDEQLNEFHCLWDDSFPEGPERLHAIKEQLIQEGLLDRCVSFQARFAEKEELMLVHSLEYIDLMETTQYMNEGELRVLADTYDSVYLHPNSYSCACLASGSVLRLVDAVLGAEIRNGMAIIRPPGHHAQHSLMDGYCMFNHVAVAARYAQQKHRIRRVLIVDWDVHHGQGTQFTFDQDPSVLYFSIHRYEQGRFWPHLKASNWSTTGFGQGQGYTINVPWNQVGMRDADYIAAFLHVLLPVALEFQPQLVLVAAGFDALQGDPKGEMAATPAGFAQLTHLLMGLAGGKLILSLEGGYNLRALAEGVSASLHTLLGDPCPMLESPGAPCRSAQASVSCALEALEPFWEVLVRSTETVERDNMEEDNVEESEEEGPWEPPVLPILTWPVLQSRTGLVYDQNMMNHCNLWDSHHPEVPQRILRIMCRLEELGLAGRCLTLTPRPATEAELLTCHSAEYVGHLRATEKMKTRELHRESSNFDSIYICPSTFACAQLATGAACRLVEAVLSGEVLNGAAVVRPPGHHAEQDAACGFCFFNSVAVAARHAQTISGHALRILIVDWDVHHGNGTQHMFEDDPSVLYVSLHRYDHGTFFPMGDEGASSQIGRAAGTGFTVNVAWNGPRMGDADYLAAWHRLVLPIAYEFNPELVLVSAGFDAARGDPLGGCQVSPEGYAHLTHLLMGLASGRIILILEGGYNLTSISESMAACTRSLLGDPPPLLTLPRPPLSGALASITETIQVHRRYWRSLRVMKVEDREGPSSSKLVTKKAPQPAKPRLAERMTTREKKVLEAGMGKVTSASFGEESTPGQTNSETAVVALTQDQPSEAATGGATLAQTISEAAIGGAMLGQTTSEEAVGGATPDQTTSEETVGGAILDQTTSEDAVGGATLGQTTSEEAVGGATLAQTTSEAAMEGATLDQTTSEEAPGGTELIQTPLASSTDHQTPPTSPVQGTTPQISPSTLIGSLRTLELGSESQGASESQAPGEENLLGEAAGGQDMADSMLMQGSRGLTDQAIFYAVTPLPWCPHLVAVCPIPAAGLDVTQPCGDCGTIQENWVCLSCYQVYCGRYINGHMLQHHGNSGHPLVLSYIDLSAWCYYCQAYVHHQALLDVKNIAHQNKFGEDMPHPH
How it was run: (§1)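 Human recombinant enzyme (0.3 μg for HDAC1) reacted with 10 μM Fluor de Lys-SIRT1 substrate and 5-fold compound dilutions at 30 °C for 60 min, then developer for 30 min. Fluorescence read at Ex 360/Em 460; IC50 calculated. HDAC6 run by the same protocol.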

[2] = target: T2, human recombinant HDAC1 (Homo sapiens, UniProt Q13547); assay: HDAC1 enzyme activity inhibition assay (in vitro, fluorimetric); format: biochemical; settings: human recombinant HDAC1, fluorimetric kit, 30° C. 60 minutes
T2 construct: purchased Enzo Life Science BML-SE456
How it was run: as §1

T2 sequence (Q13547 whole entry): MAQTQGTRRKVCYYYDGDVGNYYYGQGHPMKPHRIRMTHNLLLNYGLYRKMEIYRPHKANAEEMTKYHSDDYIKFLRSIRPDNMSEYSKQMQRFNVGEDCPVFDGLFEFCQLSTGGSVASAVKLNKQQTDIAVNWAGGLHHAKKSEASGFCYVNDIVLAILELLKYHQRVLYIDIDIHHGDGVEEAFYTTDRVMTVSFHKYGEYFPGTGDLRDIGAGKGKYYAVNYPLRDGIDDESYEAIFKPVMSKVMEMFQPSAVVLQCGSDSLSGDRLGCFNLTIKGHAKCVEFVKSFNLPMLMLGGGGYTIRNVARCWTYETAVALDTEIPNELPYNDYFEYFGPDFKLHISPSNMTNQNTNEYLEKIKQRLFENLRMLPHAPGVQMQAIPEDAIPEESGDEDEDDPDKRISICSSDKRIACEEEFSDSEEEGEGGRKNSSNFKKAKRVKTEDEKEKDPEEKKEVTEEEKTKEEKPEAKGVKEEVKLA

| HDAC6 selectivity (fold) [1] [fold] | IC50 [1] [nM] | IC50 [2] [nM] | Structure (SMILES) |
| --- | --- | --- | --- |
| >43 | 235 | > 10000 | C[C@@H]1CN(Cc2ccc(C(=O)NO)cc2)C[C@H](C)N1Cc1ccccc1-c1ccco1 [Compound 327, 4-(((3R,5S)-4-(2-(furan-2-yl)benzyl)-3,5-dimethylpiperazin-1-yl)methyl)-N-hydroxybenzamide] |
| 183 | 102 | 18700 | C[C@@H]1CN(Cc2ccc(C(=O)NO)cc2)C[C@H](C)N1Cc1ccccc1-c1ccoc1 [Compound 328, 4-(((3R,5S)-4-(2-(furan-3-yl)benzyl)-3,5-dimethylpiperazin-1-yl)methyl)-N-hydroxybenzamide] |
| 280 | 52 | 14600 | C[C@@H]1CN(Cc2ccc(C(=O)NO)cc2)C[C@H](C)N1Cc1ccccc1-c1ccncc1 [Compound 329, 4-(((3R,5S)-3,5-dimethyl-4-(2-(pyridin-4-yl)benzyl)piperazin-1-yl)methyl)-N-hydroxybenzamide] |
| 749 | 24 | 18000 | C[C@@H]1CN(Cc2ccc(C(=O)NO)cc2)C[C@H](C)N1Cc1ccccc1-c1cccnc1 [Compound 330, 4-(((3R,5S)-3,5-dimethyl-4-(2-(pyridin-3-yl)benzyl)piperazin-1-yl)methyl)-N-hydroxybenzamide] |
| 207 | 106 | 21900 | C[C@@H]1CN(Cc2ccc(C(=O)NO)cc2)C[C@H](C)N1Cc1ccccc1C1=CCOCC1 [Compound 332, 4-(((3R,5S)-4-(2-(3,6-dihydro-2H-pyran-4-yl)benzyl)-3,5-dimethylpiperazin-1-yl)methyl)-N-hydroxybenzamide] |
| 3 | 606 | 1600 | C[C@@H]1CN(Cc2ccc(C(=O)NO)cc2)C[C@H](C)N1C(=O)c1ccc(-c2ccco2)cc1 [Compound 340, 4-(((3R,5S)-4-(4-(furan-2-yl)benzoyl)-3,5-dimethylpiperazin-1-yl)methyl)-N-hydroxybenzamide] |
| 456 | 19 | 8700 | C[C@@H]1CN(Cc2ccc(C(=O)NO)cc2)C[C@H](C)N1Cc1cccc(-c2ccco2)c1 [Compound 342, 4-(((3R,5S)-4-(3-(furan-2-yl)benzyl)-3,5-dimethylpiperazin-1-yl)methyl)-N-hydroxybenzamide] |
| 328 | 27 | 8800 | C[C@@H]1CN(Cc2ccc(C(=O)NO)cc2)C[C@H](C)N1Cc1cccc(-c2ccoc2)c1 [Compound 343, 4-(((3R,5S)-4-(3-(furan-3-yl)benzyl)-3,5-dimethylpiperazin-1-yl)methyl)-N-hydroxybenzamide] |

More lines, now with the values behind:

| Structure (SMILES) | HDAC6 selectivity (fold) [1] [fold] | IC50 [1] [nM] | IC50 [2] [nM] |
| --- | --- | --- | --- |
| CC(C)C(=O)N1[C@H](C)CN(Cc2ccc(C(=O)NO)cc2)C[C@@H]1C [Compound 296, N-hydroxy-4-(((3R,5S)-4-isobutyryl-3,5-dimethylpiperazin-1-yl)methyl)benzamide] | 34 | 204 | 6900 |
| CC(C)CC(=O)N1[C@H](C)CN(Cc2ccc(C(=O)NO)cc2)C[C@@H]1C [Compound 297, 4-(((3R,5S)-3,5-dimethyl-4-(3-methylbutanoyl)piperazin-1-yl)methyl)-N-hydroxybenzamide] | 62 | 90 | 5600 |
| C[C@@H]1CN(Cc2cccc(C(F)(F)F)c2)C[C@H](C)N1Cc1ccc(C(=O)NO)cc1 [Compound 298, 4-(((2S,6R)-2,6-dimethyl-4-(3-(trifluoromethyl)benzyl)piperazin-1-yl)methyl)-N-hydroxybenzamide] | 15 | 369 | 5500 |
| C[C@@H]1CN(Cc2ccc(N(C)C)cc2)C[C@H](C)N1Cc1ccc(C(=O)NO)cc1 [Compound 299, 4-(((2S,6R)-4-(4-(dimethylamino)benzyl)-2,6-dimethylpiperazin-1-yl)methyl)-N-hydroxybenzamide] | 5 | 243 | 1200 |
| C[C@@H]1CN(Cc2ccc(S(C)(=O)=O)cc2)C[C@H](C)N1Cc1ccc(C(=O)NO)cc1 [Compound 300, 4-(((2S,6R)-2,6-dimethyl-4-(4-(methylsulfonyl)benzyl)piperazin-1-yl)methyl)-N-hydroxybenzamide] | 7 | 530 | 3700 |
| C[C@@H]1CN(Cc2ccc(-n3ccnc3)cc2)C[C@H](C)N1Cc1ccc(C(=O)NO)cc1 [Compound 301, 4-(((2S,6R)-4-(4-(1H-imidazol-1-yl)benzyl)-2,6-dimethylpiperazin-1-yl)methyl)-N-hydroxybenzamide] | 11 | 253 | 2800 |
| C[C@@H]1CN(Cc2ccc(-c3cccs3)cc2)C[C@H](C)N1Cc1ccc(C(=O)NO)cc1 [Compound 302, 4-(((2S,6R)-2,6-dimethyl-4-(4-(thiophen-2-yl)benzyl)piperazin-1-yl)methyl)-N-hydroxybenzamide] | 3 | 1130 | 3600 |
| C[C@@H]1CN(Cc2ccc(-c3ccco3)cc2)C[C@H](C)N1Cc1ccc(C(=O)NO)cc1 [Compound 303, 4-(((2S,6R)-4-(4-(furan-2-yl)benzyl)-2,6-dimethylpiperazin-1-yl)methyl)-N-hydroxybenzamide] | 3 | 1110 | 2900 |
| C[C@@H]1CN(Cc2ccc(-n3cnnc3)cc2)C[C@H](C)N1Cc1ccc(C(=O)NO)cc1 [Compound 304, 4-(((2S,6R)-4-(4-(4H-1,2,4-triazol-4-yl)benzyl)-2,6-dimethylpiperazin-1-yl)methyl)-N-hydroxybenzamide] | 8 | 280 | 2300 |
| Cc1nccn1-c1ccccc1CN1C[C@@H](C)N(Cc2ccc(C(=O)NO)cc2)[C@@H](C)C1 [Compound 305, 4-(((2S,6R)-2,6-dimethyl-4-(2-(2-methyl-1H-imidazol-1-yl)benzyl)piperazin-1-yl)methyl)-N-hydroxybenzamide] | 174 | 32 | 5600 |
| C[C@@H]1CN(Cc2ccc(C(=O)NO)cc2)C[C@H](C)N1Cc1ccc(-c2ccoc2)cc1 [Compound 309, 4-(((3R,5S)-4-(4-(furan-3-yl)benzyl)-3,5-dimethylpiperazin-1-yl)methyl)-N-hydroxybenzamide] | 21 | 73 | 1600 |
| C[C@@H]1CN(Cc2ccc(/C=C/C(=O)NO)cc2)C[C@H](C)N1C(=O)Nc1cccc(-n2cccc2)c1 [Compound 321, (2S,6R)-N-(3-(1H-pyrrol-1-yl)phenyl)-4-(4-((E)-3-(hydroxyamino)-3-oxoprop-1-en-1-yl)benzyl)-2,6-dimethylpiperazine-1-carboxamide] | 8 | 125 | 1100 |
| C[C@@H]1CN(Cc2ccc(/C=C/C(=O)NO)cc2)C[C@H](C)N1C(=O)c1ccco1 [Compound 322, (E)-3-(4-(((3R,5S)-4-(furan-2-carbonyl)-3,5-dimethylpiperazin-1-yl)methyl)phenyl)-N-hydroxyacrylamide] | 6 | 175 | 1100 |
| C[C@@H]1CN(Cc2ccc(/C=C/C(=O)NO)cc2)C[C@H](C)N1C(=O)Cc1ccccc1 [Compound 323, (E)-3-(4-(((3R,5S)-3,5-dimethyl-4-(2-phenylacetyl)piperazin-1-yl)methyl)phenyl)-N-hydroxyacrylamide] | >11 | 921 | > 10000 |
| C[C@@H]1CN(Cc2ccc(C(=O)NO)cc2)C[C@H](C)N1C(=O)c1ccccc1C1=CCOCC1 [Compound 326, 4-(((3R,5S)-4-(2-(3,6-dihydro-2H-pyran-4-yl)benzoyl)-3,5-dimethylpiperazin-1-yl)methyl)-N-hydroxybenzamide] | >172 | 58 | > 10000 |
